One series concerns the target Pim1 (Homo sapiens, UniProt P11309). Description: Kinase assay with purified Pim1 and EDC3 (EDC3 S161 phosphorylation). The series is classed as biochemical. The note with it: in vitro, FIG. 8. The procedure:
(§1) FIGS. 7A-7I show inhibition of VBT5445 (VBT) on Pim1 and EDC3 binding and phosphorylation. FIG. 7A: In vitro co-precipitation (Co-PPT) assay was performed with recombinant EDC3 and biotinylated Pim1 using Streptavidin beads with increasing concentrations of the Pim inhibitor VBT5445 (VBT). FIG. 7B: Kinase assays were performed with recombinant EDC3 and Pim1 with increasing concentrations of VBT. FIG. 7C: Cell lysates from PC3-LN4 cells cultured with DMSO, 10 μM VBT, 3 μM AZD5363 (AKTi) and the combination for 6 hrs were subjected to western blotting (WB). […] WBs were performed using the indicated antibodies. FIG. 7E: PC3-LN4 cells were seeded into 48 well plate and incubated with either DMSO, VBT, AZD5363 or the combination, for 4.5 days. A real-time imaging system (IncuCyte™) was used to measure cell proliferation using a non-label cell monolayer confluence approach. FIG. 7F-7H: GFP image in PC3 LN4 GFP EDC3 expressing cells treated with PIMi: VBT (5 μM) and VBT (5 μM)+AZD5363 (3 μM) for 6 hrs.
Computer screening followed by surface plasmon resonance (SPR) yielded a lead compound VBT-5445 that can interact with the Pim-1 protein kinase. Enhancer of mRNA Decapping 3 (EDC3) is a substrate of the Pim kinase that regulates the decapping of messenger RNA, and its activity is modulated by Pim mediated phosphorylation. […]

The next series addresses Pim1 and EDC3 binding (Homo sapiens, UniProt P11309). Description: In vitro co-precipitation / co-immunoprecipitation of EDC3 with Pim1. The settings on record: VBT-5445 at concentrations higher than 1 μM, listed as VBT 1-34. The procedure: as §1
For series [1], the system named is PC3-LN4 cells. The series can be described thus: Cell growth assay (IncuCyte) in PC3-LN4 prostate cancer cells. The series is classed as cell-based, human. The settings on record: combination with AZD5363 or BKM120. Here is the method:
as §1
Cell growth assay: Tumor cells were seeded into 48 well plates (1000 cells/well) and treated with varied agents. The Incucyte real-time imaging system (Incucyte) was used to measure cell proliferation using a non-label cell monolayer confluence approach. The images were captured every 12 h. Graphs were generated using an integrated confluence metric as an alternative for cell numbers. At the end of the study cell growth was visualized by crystal violet staining.

The next series has as its system Pim kinase. Description: Pim substrate phosphorylation in LNCaP prostate cancer cells (Western blot). It counts as cell-based. The note with it: serum-starved conditions. The procedure: Right: LNCaP and LNCaP stably expressed Pim1 cells were treated with DMSO and GRG-1-34 ([…]) without FBS medium for 6 h. Lysates (25 μg) were subjected to western blotting with the antibodies for P-IRS1 (S1101), IRS1, P-elF4B (S406), elF4B, P-EDC3 (S161), EDC3, Pim1, and β-Actin.
Immunoblotting: Western blots were performed as described previously. Briefly, protein lysates (30 μg) were subjected to SDS-PAGE and transferred to nitrocellulose membranes. After blocking with 5% milk in TBST buffer for 30 min at room temperature, the membranes were incubated overnight at 4° C. with the Indicated primary antibody in 3% BSA in TBST. Specific proteins were detected with the corresponding HRP conjugated secondary antibody using enhanced chemiluminescence (GE Lifesciences, Piscataway, NJ).

For another series, the system named is PC3-LN4 and PANC1 cells. Description: RPPA of PC3-LN4 and PANC1 cells (FIG. 24). The settings on record: 5 μM, 24 h. The series is classed as cell-based. The procedure: Tumor cells were treated with or without GRG-1-34 (5 μM) for 24 h and lysates were subjected to RPPA. The results were clustered in the form of heat map created using the Heatmapper web tool. The analysis was completed with the clustering method of Complete Linkage and the distance measurement method of Kendall's Tau.
To further examine how these compounds function to inhibit tumor growth, changes in both a wide variety of phosphoprotein and protein levels using reverse-phase protein arrays (RPPA) were evaluated. PANC1 and PC3-LN4 cells were treated with GRG1-34 at 5 μM for 24 h. […] The values in the RPPA obtained at these two time points were divided by the value at time zero to allow an evaluation of the changes caused by each drug treatment.

A short description of series [2]: Plasma pharmacokinetics after oral dosing in mice. The series is classed as in vivo, mouse. The procedure:
Plasma concentrations of GRG-1-34: These concentrations were determined by high performance liquid chromatography (HPLC) tandem mass spectrometry (MS). Quantification was achieved by GRG-1-34 calibration standards prepared in mouse plasma. GRG-1-34 in calibration standards or authentic samples was extracted by protein precipitation with methanol. After centrifugation, the supernatant was injected onto the HPLC-MS system. HPLC separation was achieved using a C-18 column and a gradient mobile phase of water and acetonitrile, both with 0.1% formic acid. The mass spectrometer was operated in the electrospray positive ion mode with selective reaction monitoring. The calibration curve was linear over the plasma concentration range of 2-1800 ng/ml. The pharmacokinetic analysis was performed using PKSolver 2.0 by a noncompartmental analysis. Murine gavage with GRG 1-34 was approved by the Animal Care Committee of the University of Arizona.
To examine the pharmacokinetics of this class of com-pounds GRG 1-34, one of the active isoforms, was given orally and blood was sampled from 3 mice at each time point (FIG. 21). The plasma concentration of GRG-1-34 peaked at 0.5 h after oral dosing and declined as a function of time. […] It has a large apparent volume of distribution (VZ/F) and apparent systemic clearance (CL/F), likely attributed to low systemic bioavailability (F) after oral dosing. At the maximum blood concentration of […], GRG-1-34 reached a concentration of 4 μM which in cell culture was sufficient to inhibit cell growth.

The subject of the next series is Prostate Cancer Growth. Description: SAR studies using inhibition of prostate cancer growth as a readout. It counts as cell-based. The note with it: SAR by substituent position.
For series [3], the system named is PC3-LN4 cells. The series can be described thus: Western blotting of PC3-LN4 cell lysates. It counts as cell-based, human. The settings on record: PC3-LN4 cells with CRISPR/CAS9 knockout of TSC2 or DEPDC5.

“Also recorded” adds a separate entry of the source.

Sequence of Pim1 and EDC3 binding (P11309 whole entry): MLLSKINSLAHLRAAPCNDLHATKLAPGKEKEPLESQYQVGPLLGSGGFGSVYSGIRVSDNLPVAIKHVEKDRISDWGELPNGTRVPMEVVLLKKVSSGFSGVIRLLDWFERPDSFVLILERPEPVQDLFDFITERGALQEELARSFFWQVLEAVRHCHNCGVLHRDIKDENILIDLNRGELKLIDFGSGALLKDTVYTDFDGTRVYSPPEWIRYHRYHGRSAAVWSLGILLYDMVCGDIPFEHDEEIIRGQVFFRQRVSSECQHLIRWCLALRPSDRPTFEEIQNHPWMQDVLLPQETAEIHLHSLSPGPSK
Sequence of Pim1 (P11309 whole entry): as above

Regarding `O=c1c(CNCc2cc(Br)ccn2)cc2ccc(Cl)cc2n1CCOc1ccccc1` [GRG-1-34, 3-((((4-bromopyridin-2-yl)methyl)amino)methyl)-7-chloro-1-(2-phenoxyethyl) quinolin-2 (1H)-one], the “inhibition of the ability of Pim to phosphorylate EDC3” value at Pim1 was “inhibit the ability of Pim to phosphorylate EDC3”. Moreover, the “co-immunoprecipitation of EDC3 with Pim” value at Pim1 and EDC3 binding was “block the co-immunoprecipitation of EDC3 with Pim; also recorded: blocks co-immunoprecipitation of EDC3 with Pim”. Moreover, the “prostate cancer (PC3-LN4) growth, in combination with AKT/PI3K inhibitor” value in the series on PC3-LN4 cells [1] is recorded as “enhanced”. For the same molecule, in the series on Pim kinase, the “Pim kinase activity: Pim substrate phosphorylation (IRS1, elF4B, EDC3)” value (“Pim kinase activity” below) is listed as “decreased Pim substrate phosphorylation”. Further, the “Pim kinase activity” value in the series with Pim kinase (listed as GRG 1-34) is reported as “suppresses Pim kinase activity”. Also, in the series on Pim kinase (listed as VBT 1-34), the “Pim kinase activity” value is recorded as “inhibits Pim activity”. For the same molecule, in the series on PC3-LN4 and PANC1 cells, the “mTORC signaling pathway on RPPA (mTOR S2448, S6 S235/235, S6K T389, 4E-BP1 S65)” value was “inhibition”; the “phosphorylation of AMPK T172 on RPPA” value is “increased”; the “phosphorylation of acetyl COA carboxylase S79 on RPPA” value was “increased”. Moreover, in series [2] (mouse, plasma, 62 mg/kg, oral, read-out: half-life (T1/2) (converted)), the half-life is 125 min. For the same molecule, the Cmax in series [2] (mouse, plasma, oral, dose of 62 mg/kg, read-out: average maximum plasma concentration (Cmax)) was determined as 1990 ng/mL. Besides, in series [2] (oral), the “apparent systemic clearance (CL/F)” value is “large” and the maximum blood concentration stood at 2 ng/mL. Also, the “time at which the plasma concentration peaked after oral dosing” value in series [2] (oral (gavage)) worked out at 0.5 h. Further, the “blood concentration reached at the maximum, molar” value in series [2] (oral, level sufficient in cell culture to inhibit growth) came out at 4 µM. For the same molecule, in the series on Prostate Cancer Growth, the “Activity (inhibition of prostate cancer growth)” value came out at 6 active compounds. Moreover, the “mTORC activity in TSC2 or DEPDC5 KO prostate tumor cells” value with PC3-LN4 cells [3] is “inhibits mTORC”.

Values taken from US20250129045A1, “SMALL MOLECULE PIM AND MTOR KINASE INHIBITOR AND METHODS OF USE THEREOF” (Arizona Board of Regents on Behalf of the University of …, priority 2022, published 2025).
